Results taken from US7601708B2, “Bile-acid derived compounds for providing sustained systemic concentrations of drugs after oral administration” (XenoPort, Inc., priority 2000, dated 2009).

What was measured:
[1] = molecular target: T1, LBAT (Homo sapiens, UniProt Q14973); assay: Electrogenic transport in Xenopus oocytes expressing LBAT; type: cell-based; conditions: maximal induced current relative to glycodeoxycholate (100 μM)
T1 sequence (Q14973 1-349): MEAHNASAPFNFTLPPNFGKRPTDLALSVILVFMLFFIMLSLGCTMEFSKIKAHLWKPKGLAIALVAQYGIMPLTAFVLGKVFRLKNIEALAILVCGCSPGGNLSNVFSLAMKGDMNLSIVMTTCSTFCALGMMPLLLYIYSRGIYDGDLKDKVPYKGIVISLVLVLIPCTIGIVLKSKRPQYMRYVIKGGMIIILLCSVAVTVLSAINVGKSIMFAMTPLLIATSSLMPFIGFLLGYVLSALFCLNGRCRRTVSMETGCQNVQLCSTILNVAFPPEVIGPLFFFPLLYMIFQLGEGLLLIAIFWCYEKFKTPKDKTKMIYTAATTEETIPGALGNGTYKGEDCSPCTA
Method: (b) Analysis of Electrogenic Transport in Xenopus Oocytes RNA Preparation: Human IBAT and LBAT Transporter cDNAs were subcloned into a modified pGEM plasmid that contains [NT] untranslated sequences from the Xenopus β-actin gene. These sequences increase RNA stability and protein expression. […] Xenopus oocyte isolation. Xenopus laevis frogs were anesthetized by immersion in Tricaine ([…] in deionized water) for 15 min. […] The oocytes were washed 6 times, and the buffer changed to frog ringer solution containing CaCl2 (1.8 mM). Remaining follicle cells were removed if necessary. Cells were incubated at 16° C., and each oocyte injected with […] solution. Electrophysiology measurements. […] Bath flow was controlled by an automated perfusion system (ALA Scientific Instruments, solenoid valves). For transporter pharmacology, oocytes were clamped at -60 to -90 mV, and continuous current measurements acquired using PowerLab Software and an ADInstruments digitizer. Current signals were lowpass filtered at 20 Hz and acquired at 4-8 Hz. All bath and drug-containing solutions were frog ringers solution containing CaCl2. […] The difference current (baseline subtracted from peak current during drug application) reflected the net movement of charge resulting from electrogenic transport and was directly proportional to tranport rate.

[2] = molecular target: T2, IBAT (Homo sapiens, UniProt Q12908); assay: In vitro uptake by CHO cells transfected with IBAT evaluated by LC-MS/MS; type: cell-based; conditions: 0.06 to 1000 μM, 10 min; uptake by untransfected CHO K1 cells subtracted
T2 construct: expressed in transfected cells; host or cells: CHO
Method: (§1) Active transport of (8) by the bile acid transport system was evaluated in vitro by incubation of (8) or glycocholate (control substrate) with untransfected CHO K1 cells or CHO cells transfected with either IBAT or LBAT. Cells (10^5 cells/mL) were incubated in 96 well plates with varying concentrations (0.06 to 1000 μM) of (8) or glycocholate for 10 min. Cells were then washed with Hank's Balanced Salt Solution (HBSS) and lysed and extracted by addition of 100 μL of water followed by sonication. Concentrations of (8) or glycocholate in cell extracts were determined by direct injection onto an API 2000 LC/MS/MS equipped with an Agilent 1100 binary pump and autosampler. Separation was achieved using a Keystone BDS Hypersil 2×50 mm column heated to 45° C. during the analysis. The mobile phases were: 0.1% formic acid in water (A) and 0.1% formic acid in acetonitrile (B). The gradient condition was: 5% B for 1 min, increasing to 90% B in 0.2 min, maintained for 2.8 min and returning to 5% B for 2 min. A TurboIonSpray source was used on the API 2000. The analysis was performed in the positive ion mode and MRM transitions of 466/412 and 562/154 were used in the analysis of glycocholate and (8), respectively. Ten microliters of the cell extracts were injected. Peaks were integrated using Analyst quantitation software. […]

[3] = molecular target: T3, Carboxypeptidase A (Bos taurus, UniProt P00730); assay: Stability towards purified carboxypeptidase A; type: in vitro ADME; conditions: Carboxypeptidase A (10 units/mL); substrate 2.0 μM; no cofactors; 37° C.
T3 sequence (P00730 111-419): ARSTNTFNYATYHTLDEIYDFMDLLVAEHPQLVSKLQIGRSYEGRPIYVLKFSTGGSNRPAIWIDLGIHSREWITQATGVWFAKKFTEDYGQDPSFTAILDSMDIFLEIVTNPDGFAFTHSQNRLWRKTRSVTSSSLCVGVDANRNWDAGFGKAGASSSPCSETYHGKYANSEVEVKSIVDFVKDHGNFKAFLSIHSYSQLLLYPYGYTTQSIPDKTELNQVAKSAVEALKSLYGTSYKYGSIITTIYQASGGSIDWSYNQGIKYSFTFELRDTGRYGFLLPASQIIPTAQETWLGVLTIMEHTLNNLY

[4] = male, Sprague-Dawley, rat, in vivo, po, 85.25 mg/kg
[5] = molecular target: T4, LBAT (Homo sapiens, UniProt Q14973); assay: In vitro uptake by CHO cells transfected with LBAT evaluated by LC-MS/MS; type: cell-based; conditions: 0.06 to 1000 μM, 10 min; uptake by untransfected CHO K1 cells subtracted
T4 construct: expressed in transfected cells; host or cells: CHO
Method: as §1

[6] = Secretion in bile after oral administration to bile duct-cannulated rats; type: in vivo, Sprague-Dawley rats; conditions: single oral dose of (8) 85.25 mg/kg
Method: Sustained release of gabapentin from a prodrug that is subject to enterohepatic recirculation requires that a proportion of the intact prodrug be absorbed after oral administration and subsequently secreted into the bile intact. The potential for enterohepatic recirculation of intact (8) was examined in rats with indwelling bile duct fistulae. […] Bile was collected continuously in aliquots over 24 hours. Plasma and bile samples were frozen at −80° C. until analyzed. […] Concentrations of intact (8) in bile were similarly determined by LC/MS/MS. Bile (20 μL) was diluted 1:1000 with methanol and injected directly onto the HPLC system. Concentrations of (8) in bile reached a maximum at ˜6 hours post-dosing and were sustained up to 24 hours.

[7] = Pharmacokinetics after oral administration to rats; conditions: single oral dose of gabapentin 25 mg/kg

T2 sequence (Q12908 whole entry): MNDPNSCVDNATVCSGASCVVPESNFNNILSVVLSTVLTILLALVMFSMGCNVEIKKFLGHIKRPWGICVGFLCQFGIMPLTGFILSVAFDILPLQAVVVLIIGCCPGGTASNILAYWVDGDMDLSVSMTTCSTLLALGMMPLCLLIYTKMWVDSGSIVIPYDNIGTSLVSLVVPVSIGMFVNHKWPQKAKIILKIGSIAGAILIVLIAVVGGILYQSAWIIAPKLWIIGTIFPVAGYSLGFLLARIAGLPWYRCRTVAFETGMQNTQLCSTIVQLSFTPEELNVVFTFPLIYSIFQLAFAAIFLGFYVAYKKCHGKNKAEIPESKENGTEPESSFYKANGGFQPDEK

For `CC(CCC(=O)NCC(=O)NCC1(CC(=O)O)CCCCC1)C1CCC2C3C(O)CC4CC(O)CCC4(C)C3CC(O)C12C` (stereo not shown) [(13), Cholyl-Gly-Gabapentin], the “% Max. (GDC)” value [1] was 38%.
For `CC(CCC(=O)NCC1(CC(=O)O)CCCCC1)C1CCC2C3C(O)CC4CC(O)CCC4(C)C3CC(O)C12C` (stereo not shown) [Compound (8)], the “Active uptake into IBAT transfected cells” value [2] was “Active uptake”, the “Percent of Gabapentin Released in 60 min” value [3] was “Stable” and the “time of maximum concentration of intact (8) in plasma” value [4] was roughly 8 h. For the same molecule, the “time to which concentrations of intact (8) in plasma were sustained” value [4] was 24 h, the “Active uptake into LBAT transfected cells” value [5] was “Active uptake” and the “time of maximum concentration of (8) in bile” value [6] was roughly 6 h. The “time to which concentrations of (8) in bile were sustained” value [6] was 24 h and the “gabapentin in plasma of bile duct-cannulated rats” value ([6]; analyte gabapentin) was “no gabapentin was detected”.
With `NCC1(CC(=O)O)CCCCC1` [gabapentin, 1-aminomethyl-1-cyclohexaneacetic acid] the “terminal half-life of gabapentin in plasma” value [7] was 2.4 ± 0.5 h.
